For test [1], the target named is Serotonin 2 (5-HT2) receptor (Rattus norvegicus, UniProt P30994+P08909+P14842).
Description: In vitro binding affinity against rat 5-hydroxytryptamine 2 receptor.
The target in test [2] is Muscarinic acetylcholine receptor.
Description: In vitro binding affinity against Muscarinic acetylcholine receptors in rat brain.
A further test concerns the target D(1A) dopamine receptor (Rattus norvegicus, UniProt P18901). The test can be described thus: biochemical.
The species named for test [3] is Rattus norvegicus. Nature of the test: animal or person. The settings on record: sc, read-out: Inhibition.
Test [4] deals with Rattus norvegicus. Nature of the test: In vivo inhibition of apomorphine-mediated stereotypy in rats administered subcutaneously at 20 mg/kg expressed as ED50 (mg/kg). The class given is functional. The settings on record: sc, route subcutaneous.
The species named for test [5] is Rattus norvegicus. The test can be described thus: animal or person. The note with it: sc, read-out: Inhibition. The source holds these as a separate data set.
Test [6] concerns Rattus norvegicus. Nature of the test: In vivo inhibition of apomorphine-mediated stereotypy in rats administered subcutaneously at 20 mg/kg expressed as percent inhibition. The class given is functional. The note with it: sc, route subcutaneous.
The species named for test [7] is Rattus norvegicus. The test can be described thus: animal or person. The note with it: sc.
Test [8] deals with Rattus norvegicus. Nature of the test: In vivo inhibition of apomorphine-mediated stereotypy in rats administered subcutaneously at 20 mg/kg expressed as ED50 (mg/kg); Onactive. The class given is functional, organism-based. Further details: dose 20 mg/kg.
Test [9] deals with Rattus norvegicus. Nature of the test: In vivo inhibition of apomorphine-mediated stereotypy in rats administered subcutaneously at 20 mg/kg expressed as ED50 (mg/kg); Inactive. The class given is functional, organism-based. Details: dose 20 mg/kg.
The test system of test [10] is Rattus norvegicus. The test can be described thus: In vivo inhibition of apomorphine-mediated stereotypy in rats administered subcutaneously at 10 mg/kg expressed as percent inhibition. The class given is functional. The settings on record: sc, route subcutaneous.

The source made the active and inactive calls. No cut-off for these calls is given here.

D(1A) dopamine receptor, sequence (P18901 whole entry): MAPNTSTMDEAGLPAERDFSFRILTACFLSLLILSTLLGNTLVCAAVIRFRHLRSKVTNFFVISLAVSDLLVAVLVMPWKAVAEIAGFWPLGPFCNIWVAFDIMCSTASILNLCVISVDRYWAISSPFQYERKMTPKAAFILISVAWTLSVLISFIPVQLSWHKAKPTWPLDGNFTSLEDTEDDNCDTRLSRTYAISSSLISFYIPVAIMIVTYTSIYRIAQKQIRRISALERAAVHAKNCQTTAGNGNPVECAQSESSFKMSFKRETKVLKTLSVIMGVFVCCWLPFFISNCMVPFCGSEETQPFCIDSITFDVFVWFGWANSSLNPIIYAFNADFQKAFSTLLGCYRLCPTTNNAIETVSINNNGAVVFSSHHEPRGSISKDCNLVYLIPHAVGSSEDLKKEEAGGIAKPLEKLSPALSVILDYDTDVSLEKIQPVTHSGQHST
Description for D(1A) dopamine receptor: In vitro binding affinity against Dopamine receptor D1 in rat striatal tissue

Consider `CN1CCN(C2=Nc3ccccc3N(C=O)c3ccncc32)CC1`, for which the Ki in test [1] came out at 2053 nM; in test [2], 3450 nM; at D(1A) dopamine receptor it was 3020 nM. Also, in the test filed under Rattus norvegicus [3], the inhibition in vivo at 20 mg/kg was determined as 0%.

In the test on Rattus norvegicus [4], `O=C(CCCN1CCC(O)(c2ccc(Cl)cc2)CC1)c1ccc(F)cc1` [HALOPERIDOL] returned a median effective dose (ED50) of 0.14 mg/kg. Further, the inhibition in vivo at 0.6 mg/kg in the test filed under Rattus norvegicus [5] is 100%.

With `CN1CCN(C2=Nc3cccnc3Nc3ccccc32)CC1`, the Ki in test [1] came out at 124 nM; in test [2] it was 665 nM; on D(1A) dopamine receptor, 2400 nM. Also, the inhibition in vivo at 20 mg/kg in the test filed under Rattus norvegicus [3] is 0%.

Consider `CN1CCN(C2=Nc3cccnc3Nc3ccc(F)cc32)CC1`, for which the inhibition in vivo at 20 mg/kg with Rattus norvegicus [6] was determined as 55%. Further, the Ki in test [1] was determined as 124 nM; in test [2] it was 415 nM; at D(1A) dopamine receptor, 677 nM.

For the molecule `CN1CCN(C2=Nc3ccccc3Sc3ccc(Cl)cc32)CC1` [CLOTHIAPINE], the inhibition constant Ki in test [1] turned out to be 0.6 nM; in test [2], 136 nM; on D(1A) dopamine receptor, 14 nM. In the test listed under Rattus norvegicus [7], this molecule returned an ED50 of 0.72 mg/kg. Also, the inhibition in vivo at 20 mg/kg in the test listed under Rattus norvegicus [3] came out at 100%.

In the case of `CN1CCN(C2=Nc3cc(Cl)ccc3Sc3ccccc32)CC1` [ISOCLOTHIAPINE], in the test with Rattus norvegicus [8], the ED50 entry was “inactive”. Further, the inhibition constant Ki in [1] came to 4.1 nM; in [2], 5.6 nM; at D(1A) dopamine receptor it was 240 nM.

Consider `CN1CCN(C2=Nc3ccccc3Nc3ccncc32)CC1`, for which the Ki worked out at 29 nM in test [1], 3260 nM in [2] and 302 nM on D(1A) dopamine receptor. For the same molecule, the inhibition in vivo at 20 mg/kg in the test listed under Rattus norvegicus [3] worked out at 45%.

For `CN1CCN(C2=Nc3cnccc3Nc3ccccc32)CC1`, the Ki worked out at 837 nM in test [1], 430 nM in [2] and 13500 nM on D(1A) dopamine receptor.

On to `CN1CCN(C2=Nc3cccnc3Nc3cc(Cl)ccc32)CC1`, for which the Ki came to 48 nM in test [1], 366 nM in [2] and 214 nM at D(1A) dopamine receptor. Moreover, the inhibition in vivo at 20 mg/kg in the test filed under Rattus norvegicus [3] was determined as 70%.

As to `CN1CCN(C2=Nc3cc(F)ccc3Cc3ccccc32)CC1` [FLUPERLAPINE], the inhibition constant Ki in [1] amounted to 3.8 nM; in test [2], 25 nM; on D(1A) dopamine receptor it was 141 nM.

Turning to `CN1CCN(C2=Nc3cc(Cl)ccc3Nc3ccccc32)CC1` [CLOZAPINE], the ED50 result in the test with Rattus norvegicus [9] was “inactive”. Further, the inhibition in vivo at 20 mg/kg in the test filed under Rattus norvegicus [3] was found to be 0%.

As for `CN1CCN(C2=Nc3ccccc3N(C=O)c3ncccc32)CC1`, the Ki came to 7120 nM in [1], 3415 nM in test [2] and 30200 nM at D(1A) dopamine receptor. Besides, in the test listed under Rattus norvegicus [3], the inhibition in vivo at 20 mg/kg was determined as 0%.

Regarding `CN1CCN(C2=Nc3cccnc3N(C)c3ccccc32)CC1`, the values for the Ki (in [1]; in test [2]; at D(1A) dopamine receptor) were 2900 nM, 175 nM and 6020 nM, respectively. Moreover, the inhibition in vivo at 20 mg/kg in the test filed under Rattus norvegicus [3] came out at 0%.

For `CN1CCN(C2=Nc3cccnc3N(C=O)c3ccccc32)CC1`, the inhibitory constant (Ki) stood at 1870 nM in [1], 311 nM in test [2] and 47900 nM on D(1A) dopamine receptor. Further, in the test filed under Rattus norvegicus [3], the inhibition in vivo at 20 mg/kg is 0%.

For the molecule `Cc1cnc2c(c1)N=C(N1CCN(C)CC1)c1ccccc1N2`, the Ki in test [1] was found to be 103 nM; in test [2], 523 nM; on D(1A) dopamine receptor, 1140 nM.

Turning to `Cc1ccc2c(c1)C(N1CCN(C)CC1)=Nc1cccnc1N2`, the Ki in [1] amounted to 94 nM; in test [2], 48 nM; at D(1A) dopamine receptor it was 398 nM. Also, the inhibition in vivo at 20 mg/kg in the test listed under Rattus norvegicus [3] came out at 75%.

In turn, `CN1CCN(C2=Nc3cccnc3Nc3ccc(Cl)cc32)CC1` displayed an inhibition in vivo at 10 mg/kg with Rattus norvegicus [10] of 75%. In addition, the values for the Ki (in [1]; in test [2]; at D(1A) dopamine receptor) were 6.2 nM, 65 nM and 2140 nM, respectively.

With `CN1CCN(C2=Nc3ccccc3Nc3ccc(Cl)cc32)CC1` [ISOCLOZAPINE], the inhibition constant (Ki) was determined as 21 nM in test [2] and 28 nM on D(1A) dopamine receptor. The molecule also registered an ED50 in the test listed under Rattus norvegicus [7] of 1.7 mg/kg.

Consider `CN1CCN(C2=Nc3ccccc3Nc3ncccc32)CC1`, for which the Ki amounted to 103 nM in [1], 303 nM in test [2] and 726 nM on D(1A) dopamine receptor. Further, the inhibition in vivo at 20 mg/kg in the test listed under Rattus norvegicus [3] is 0%.

What is called Ki is a measure of affinity in units of concentration, obtained from inhibition or displacement. For orientation: ED50 means the dose that gives a 50% effect, or the effect in half of the subjects.

These data come from ChEMBL document CHEMBL1126743, “New pyridobenzodiazepine derivatives as potential antipsychotics: synthesis and neurochemical study” (J Med Chem, 1993).
